In patent US7396848B1, “Neurotrophin production/secretion promoting agent” (Takeda Pharmaceutical Company Limited, priority 2000, dated 2008):

Key:
[1] = tested on: diabetic neuropathy model; assay: Sensory nerve conduction velocity in STZ diabetic neuropathy model rats; type: in vivo, SD rats; conditions: 10 mg/kg body weight/day orally for 4 months
Method: A diabetic neuropathy model was made by injecting streptozotocin (STZ) into the tail vein of male 6-week-old SD rats in a dose of 70 mg/kg body weight. After 4 moths of housing, 10 mg/kg body weight/day of compound (5) which was suspended in 0.5% (w/v) methylcellulose was orally administered for 4 months. After administration, the rats were anesthetized with pentobarbital and the body temperature of the rats were kept 37° C. using a hotplate heated and an electric lamp. Then, conduction velocities of motor nerves and sensory nerves were determined using an induction potential test device (Neuropack 2, produced by Nihon Kohden) in the following manner. Proximal or distal positions of the sural nerve of the rats were stimulated at, in principle, 0.8 mA and the potential was recorded at the plantar skin. The sensory nerve conduction velocity was calculated from the distance and latencies of the two different stimulating sites.

BDNF [2] = assay: BDNF production/secretion promoting activity in cultured Schwann cells (enzyme immunoassay of culture fluid); type: cell-based, SD rats; conditions: 24 hours, concentrations of 10^−4 M to 10^−8 M, result in words
NGF [3] = assay: NGF production/secretion promoting activity in cultured Schwann cells (enzyme immunoassay of culture fluid); type: cell-based, SD rats; conditions: 24 hours, concentrations of 10^−4 M to 10^−8 M, result in words
Method: Schwann cells were prepared by subjecting the dorsal spinal root ganglion collected from 10 newborn SD rats to enzyme treatment using 0.25% trypsin containing 0.01% deoxyribonuclease (DNase, produced by Sigma), followed by cloning from the cell group obtained. […]
The culture fluid obtained in each run of Reference Example 1A was recovered and assayed for the neurotrophin content therein. […] After washing, 30 μl of 4-methylumbelliferyl-β-D-galactoside (produced by Sigma) (10 μg/μl) was added to the substrate, the reaction was allowed to proceed at room temperature for 4 hours and then terminated by addition of 130 μl of 0.1 M glycine-sodium hydroxide buffer (pH 10.3), and the fluorescent intensity of the 4-methylumbelliferone produced was determined (Ex: 360 nm; Em: 450 nm). The amount of NGF was calculated based on a standard curve and expressed in terms of relative multiplicity in relation to the amount of NGF (control) produced and secreted by cells treated in the same manner without adding the test compound. […]

NGF [4] = assay: NGF content in peripheral and brain tissues of STZ diabetic neuropathy model rats; type: in vivo, SD rats
Method: (§1) The culture fluid obtained in each run of Reference Example 1A was recovered and assayed for the neurotrophin content therein. NGF was assayed by the enzyme immunoassay method described by Murase et al. in Biochemistry International, vol. 22, p. 807 (1990). Thus, an anti-NGF antibody (100 μg/ml) (antibody obtained by using mouse NGF as the antigen and immunizing New Zealand albino rabbits therewith) was distributed in 10-μl portions in the wells of 96-well round bottom plates and antibody adsorption was allowed to proceed by 2 hours standing at room temperature. After removing the antibody, each well was washed three times with a washing solution. A 10-μl portion of the above recovered culture fluid or standard NGF solution was placed in each well and the plates were allowed to stand at room temperature for 2.5 hours. After three times washings of each well, 20 μl of biotinylated anti-NGF antibody (35 ng/ml) was added thereto, followed by overnight standing at 4° C. […] After washing, 30 μl of 4-methylumbelliferyl-β-D-galactoside (produced by Sigma) (10 μg/μl) was added to the substrate, the reaction was allowed to proceed at room temperature for 4 hours and then terminated by addition of 130 μl of 0.1 M glycine-sodium hydroxide buffer (pH 10.3), and the fluorescent intensity of the 4-methylumbelliferone produced was determined (Ex: 360 nm; Em: 450 nm). The amount of NGF was calculated based on a standard curve and expressed in terms of relative multiplicity in relation to the amount of NGF (control) produced and secreted by cells treated in the same manner without adding the test compound. […]
(§2) A diabetic neuropathy model was made by injecting streptozotocin (STZ) into the tail vein of male 6-week-old SD rats in a dose of 70 mg/kg body weight. […] After 30 minutes of centrifugation at 15,000 rpm, the supernatant was used as the sample and the NGF and BDNF contents were determined in the same manner as in Experimental Example 1.

NT-3 = NT-3 content in pons of STZ diabetic neuropathy model rats; type: in vivo, SD rats; conditions: 10 mg/kg body weight/day orally for 1 month
Method: (§3) A diabetic neuropathy model was made by injecting streptozotocin (STZ) into the tail vein of male 6-week-old SD rats in a dose of 70 mg/kg body weight. After 4 weeks, 0.1 to 3 mg/kg body weight of compound (5) was orally administered for 4 weeks, and each tissue was collected. The collected tissue was supplemented with 25 to 40 times of disruption buffer (0.1 M Tris-hydrochloride buffer, pH 7.6, containing 1 M sodium chloride, 2% BSA, 2 mM EDTA, 80 trypsin units/L of aprotinin and 0.02% sodium azide) in terms of the wet tissue weight, which was subjected to sonication. After 30 minutes of centrifugation at 15,000 rpm, the supernatant was used as the sample and the NGF and BDNF contents were determined in the same manner as in Experimental Example 1.
(§4) A diabetic neuropathy model was made by injecting streptozotocin (STZ) into the tail vein of male 6-week-old SD rats in a dose of 70 mg/kg body weight. […]
(§5) While, the pons were collected from brain stem to determine the contents of neurotrophic factors. The BDNF contents were determined in the similar manner as in Experimental Example 2. The NT-3 contents were determined in the similar manner as in Experimental Example 2 except that an anti-NT-3 antibody (Brain Res. 1994, 12, pp. 143-146; Clin Chim Acta 1994, 227, pp. 23-36) was used.

BDNF [5] = assay: BDNF content in pons of STZ diabetic neuropathy model rats; type: in vivo, SD rats; conditions: 10 mg/kg body weight/day orally for 1 month
Method: as §3, §4, §5

BDNF [6] = assay: BDNF content in peripheral and brain tissues of STZ diabetic neuropathy model rats; type: in vivo, SD rats
Method: as §1, §2

[7] = tested on: diabetic neuropathy model; assay: Hyperalgesia test (pressure-stimulant algesiometer, pain threshold of hind-limb) in STZ diabetic neuropathy model rats; type: in vivo, SD rats; conditions: 10 mg/kg body weight/day orally for 1 month
Method: A diabetic neuropathy model was made by injecting streptozotocin (STZ) into the tail vein of male 6-week-old SD rats in a dose of 70 mg/kg body weight. After 4 months of housing, 10 mg/kg body weight/day of compound (5) which was suspended in 0.5% (w/v) methylcellulose was orally administered for 1 month. After administration, a hvderalgesia test was conducted using a pressure-stimulant algesiometer (produced by Ugo Basil) to determine the pain threshold of hind-limb.

[8] = tested on: diabetic neuropathy model; assay: Motor nerve conduction velocity in STZ diabetic neuropathy model rats; type: in vivo, SD rats; conditions: 10 mg/kg body weight/day orally for 4 months
Method: A diabetic neuropathy model was made by injecting streptozotocin (STZ) into the tail vein of male 6-week-old SD rats in a dose of 70 mg/kg body weight. After 4 moths of housing, 10 mg/kg body weight/day of compound (5) which was suspended in 0.5% (w/v) methylcellulose was orally administered for 4 months. After administration, the rats were anesthetized with pentobarbital and the body temperature of the rats were kept 37° C. using a hotplate heated and an electric lamp. Then, conduction velocities of motor nerves and sensory nerves were determined using an induction potential test device (Neuropack 2, produced by Nihon Kohden) in the following manner. Needle electrodes were placed at the thigh or the ankle of the rats. Then, the sciatic nerve or the tibial nerve was stimulated at, in principle, 1.6 mA and the action potential was recorded from the plantar muscle. The motor nerve conduction velocity was calculated from the distance and latencies of the two different stimulating sites.

[9] = Mean ± SD (n = 5 to 8), **: p < 0.01 vs STZ group
[10] = 0.1 to 3 mg/kg body weight orally for 4 weeks, hippocampus, Mean ± SD (n = 8 to 9), *: p < 0.05 vs STZ group
[11] = 0.1 to 3 mg/kg body weight orally for 4 weeks, sciatic nerve, Mean ± SD (n = 8 to 9), *: p < 0.05 vs STZ group
[12] = pons, Mean ± SD (n = 10), **: p < 0.01 vs STZ group

Cc1ccccc1OCCCc1oc(-n2ccnc2C)nc1-c1ccc(Cl)cc1 [Compound (5), 4-(4-chlorophenyl)-2-(2-methyl-1-imidazolyl)-5-[3-(2-methylphenoxy)propyl]oxazole]
SNCV (m/s) [1, 9]: 41.1 ± 7.9** m/s | sensory nerve conduction velocity, effect versus STZ group ([1]; result in words): recovered | BDNF production/secretion promoting activity (BDNF [2]): excellent | NGF production/secretion promoting activity (NGF [3]): excellent | NGF (pg/g tissue) Hippocampus (NGF [4]; [10]): 738 ± 105* pg/g tissue | NGF (pg/g tissue) Sciatic nerve (NGF [4]; [11]): 495 ± 143* pg/g tissue | NGF production/secretion promoting activity at the sciatic nerve and the hippocampus (NGF [4]; oral, 4 weeks, result in words): excellent | NT-3 (pg/g tissue) (NT-3; [12]): 352 ± 118** pg/g tissue | amount of NT-3 in pons, effect versus STZ group (NT-3; result in words): increased | BDNF (pg/g tissue) (BDNF [5]; [12]): 4151 ± 1161** pg/g tissue | amount of BDNF in pons, effect versus STZ group (BDNF [5]; result in words): increased | BDNF (ng/g tissue) Hippocampus (BDNF [6]; [10]): 3.5 ± 0.3* ng/g tissue | BDNF (ng/g tissue) Sciatic nerve (BDNF [6]; [11]): 5.0 ± 0.6* ng/g tissue | BDNF production/secretion promoting activity at the sciatic nerve and the hippocampus (BDNF [6]; oral, 4 weeks, result in words): excellent | Pain threshold (g) ([7]; hind-limb, Mean ± SD (n = 10), **: p < 0.01 vs STZ group): 109 ± 19** g | hyperalgesia, effect versus STZ group ([7]; result in words): ameliorated | MNCV (m/s) [8, 9]: 54.9 ± 7.6** m/s | motor nerve conduction velocity, effect versus STZ group ([8]; result in words): recovered
